# Source: patent US20210230616A1, “METHODS FOR ISOLATING CELLS WITHOUT THE USE OF TRANSGENIC MARKER SEQUENCES” (INSTITUTE OF GENETICS AND DEVELOPMENTAL BIOLOGY, CHINESE …, priority 2017, published 2021)
# How the values were obtained:
# Type in all cases: in vivo
# [1] = tested on: wild-type plants; assay: Nicosulfuron selection medium, wild-type rice plants; conditions: 0.0065 PPM Nicosulfuron
# Method: The pH-nCas9-PBE-OsALS-S1/S2 binary vector was transformed into Agrobacterium strain AGL1 by electroporation. Agrobacterium-mediated transformation, tissue culture and regeneration in rice cultivar Zhonghua 11 were performed according to Shan et al. (Shan, Q. et al. Targeted genome modification of crop plants using a CRISPR-Cas system. Nat. Biotechnol. 31, 686-688 (2013)). Hygromycin selection (50 μg/ml) was used during tissue culture. (This experiment is a proof of concept, so the plants were selected with hygromycin first, then by nicosulfuron. The objective was to first obtain transgenic plants and then screen for herbicide resistance). […] Four seedlings survived after 14 days. DNA was extracted from the four seedlings. The ALS gene was amplified by PCR, sequenced to determine the mutant genotype.
# [2] = tested on: wild-type plants; assay: Nicosulfuron selection medium, wild-type wheat plants
# Text: 30 days later, twelve seedlings survived, and 9 of them had base mutations at the TaALS-S2 site. The efficiency of selecting the ALS-S2 site mutant plants using nicosulfuron selection medium was 75% (9/12).
# [3] = tested on: mutant plant with heterozygous P165L substitution on ZmALS2; assay: Herbicide resistance of ZmALS-P165 edited corn plant
# Text: To establish the co-editing system in corn, acetolactate synthase site corresponding TaALS-P173 was targeted to test the herbicide resistance. It has been reported single edited allele on ZmALS2 could confer plants herbicide resistance (Svitashev et al, 2016). So the binary vector targeting ZmALS-P165 was transformed to immature embryos (ZmALS-P165 site is conserved in both ZmALS1 and ZmALS2). Three independent mutants were obtained from the regenerated plants and their genotypes are same.
Compound,survival of wild-type plants on selection medium [1],survival of wild-type plants on selection medium [2],resistance of mutant corn plant to the herbicide [3]
COc1cc(OC)nc(NC(=O)NS(=O)(=O)c2ncccc2C(=O)N(C)C)n1 [Nicosulfuron],cannot survive,unable to survive,–
COC(=O)c1ccc(CNS(C)(=O)=O)cc1S(=O)(=O)NC(=O)Nc1nc(OC)cc(OC)n1 [Mesosulfuron-methyl],–,–,showed resistance
